ChEMBL document CHEMBL4004849, “Tetrazolylmethyl quinolines: Design, docking studies, synthesis, anticancer and antifungal analyses” (2017)
Values after ≈ are worked out from the molar mass of the structure shown. Active and inactive are the calls of the source. The calls are words filed in the database; no cut-off is given here.

Experiments:
Format in all cases: functional
SR = experiment: Growth inhibition of human SR cells at 10^-5 M incubated for 48 hrs by sulforhodamine B assay relative to control
NCI-H23 = experiment: Growth inhibition of human NCI-H23 cells at 10^-5 M incubated for 48 hrs by sulforhodamine B assay relative to control
UACC-257 = experiment: Growth inhibition of human UACC257 cells at 10^-5 M incubated for 48 hrs by sulforhodamine B assay relative to control
K562 = experiment: Growth inhibition of human K562 cells at 10^-5 M incubated for 48 hrs by sulforhodamine B assay relative to control
OVCAR-8 = experiment: Growth inhibition of human OVCAR8 cells at 10^-5 M incubated for 48 hrs by sulforhodamine B assay relative to control
MOLT-4 = experiment: Growth inhibition of human MOLT4 cells at 10^-5 M incubated for 48 hrs by sulforhodamine B assay relative to control
Malme-3M = experiment: Growth inhibition of human MALME-3M cells at 10^-5 M incubated for 48 hrs by sulforhodamine B assay relative to control
ACHN = experiment: Growth inhibition of human ACHN cells at 10^-5 M incubated for 48 hrs by sulforhodamine B assay relative to control
UO-31 = experiment: Growth inhibition of human UO31 cells at 10^-5 M incubated for 48 hrs by sulforhodamine B assay relative to control
U-251 = experiment: Growth inhibition of human U251 cells at 10^-5 M incubated for 48 hrs by sulforhodamine B assay relative to control
SN12C = experiment: Growth inhibition of human SN12C cells at 10^-5 M incubated for 48 hrs by sulforhodamine B assay relative to control
SNB-75 = experiment: Growth inhibition of human SNB75 cells at 10^-5 M incubated for 48 hrs by sulforhodamine B assay relative to control
BT-549 = experiment: Growth inhibition of human BT549 cells at 10^-5 M incubated for 48 hrs by sulforhodamine B assay relative to control
HCT-116 = experiment: Growth inhibition of human HCT116 cells at 10^-5 M incubated for 48 hrs by sulforhodamine B assay relative to control
SK-OV-3 = experiment: Growth inhibition of human SKOV3 cells at 10^-5 M incubated for 48 hrs by sulforhodamine B assay relative to control
Aspergillus fumigatus [1] = experiment: Antifungal activity against Aspergillus fumigatus after 24 hrs by serial dilution method
SF-539 = experiment: Growth inhibition of human SF539 cells at 10^-5 M incubated for 48 hrs by sulforhodamine B assay relative to control
Aspergillus fumigatus [2] = experiment: Antifungal activity against Aspergillus fumigatus at 100 ug/ml by disc diffusion method; conditions: read-out: IZ
SF-268 = experiment: Growth inhibition of human SF268 cells at 10^-5 M incubated for 48 hrs by sulforhodamine B assay relative to control
M14 = experiment: Growth inhibition of human M14 cells at 10^-5 M incubated for 48 hrs by sulforhodamine B assay relative to control
Candida albicans [3] = experiment: Antifungal activity against Candida albicans after 24 hrs by serial dilution method
IGROV-1 = experiment: Growth inhibition of human IGROV1 cells at 10^-5 M incubated for 48 hrs by sulforhodamine B assay relative to control
SW-620 = experiment: Growth inhibition of human SW620 cells at 10^-5 M incubated for 48 hrs by sulforhodamine B assay relative to control
Hs-578T = experiment: Growth inhibition of human Hs 578T cells at 10^-5 M incubated for 48 hrs by sulforhodamine B assay relative to control
TK-10 = experiment: Growth inhibition of human TK10 cells at 10^-5 M incubated for 48 hrs by sulforhodamine B assay relative to control
MDA-MB-468 = experiment: Growth inhibition of human MDA-MB-468 cells at 10^-5 M incubated for 48 hrs by sulforhodamine B assay relative to control
SF-295 = experiment: Growth inhibition of human SF295 cells at 10^-5 M incubated for 48 hrs by sulforhodamine B assay relative to control
NCI-H460 = experiment: Growth inhibition of human NCI-H460 cells at 10^-5 M incubated for 48 hrs by sulforhodamine B assay relative to control
CAKI-1 = experiment: Growth inhibition of human Caki1 cells at 10^-5 M incubated for 48 hrs by sulforhodamine B assay relative to control
MDA-MB-231 = experiment: Growth inhibition of human MDA-MB-231/ATCC cells at 10^-5 M incubated for 48 hrs by sulforhodamine B assay relative to control
HL-60(TB) = experiment: Growth inhibition of human HL-60(TB) cells at 10^-5 M incubated for 48 hrs by sulforhodamine B assay relative to control
EKVX = experiment: Growth inhibition of human EKVX cells at 10^-5 M incubated for 48 hrs by sulforhodamine B assay relative to control
SK-MEL-28 = experiment: Growth inhibition of human SK-MEL-28 cells at 10^-5 M incubated for 48 hrs by sulforhodamine B assay relative to control
NCI-H226 = experiment: Growth inhibition of human NCI-H226 cells at 10^-5 M incubated for 48 hrs by sulforhodamine B assay relative to control
786-0 = experiment: Growth inhibition of human 786-0 cells at 10^-5 M incubated for 48 hrs by sulforhodamine B assay relative to control
OVCAR-5 = experiment: Growth inhibition of human OVCAR5 cells at 10^-5 M incubated for 48 hrs by sulforhodamine B assay relative to control
UACC-62 = experiment: Growth inhibition of human UACC62 cells at 10^-5 M incubated for 48 hrs by sulforhodamine B assay relative to control
LOX IMVI = experiment: Growth inhibition of human LOXIMVI cells at 10^-5 M incubated for 48 hrs by sulforhodamine B assay relative to control
OVCAR-3 = experiment: Growth inhibition of human OVCAR3 cells at 10^-5 M incubated for 48 hrs by sulforhodamine B assay relative to control
A549 = experiment: Growth inhibition of human A549/ATCC cells at 10^-5 M incubated for 48 hrs by sulforhodamine B assay relative to control
T47D = experiment: Growth inhibition of human T47D cells at 10^-5 M incubated for 48 hrs by sulforhodamine B assay relative to control
MDA-MB-435 = experiment: Growth inhibition of human MDA-MB-435 cells at 10^-5 M incubated for 48 hrs by sulforhodamine B assay relative to control
SNB-19 = experiment: Growth inhibition of human SNB19 cells at 10^-5 M incubated for 48 hrs by sulforhodamine B assay relative to control
Candida albicans [4] = experiment: Antifungal activity against Candida albicans at 100 ug/ml by disc diffusion method; conditions: read-out: IZ
HCC 2998 = experiment: Growth inhibition of human HCC2998 cells at 10^-5 M incubated for 48 hrs by sulforhodamine B assay relative to control

Cc1ccc2nc(Cl)c(Cn3nnnc3CSc3ccccc3)cc2c1
growth inhibition (GI) (SR): Active
growth inhibition (GI) (NCI-H23): Active
growth inhibition (GI) (UACC-257): Active
growth inhibition (GI) (K562): Active
growth inhibition (GI) (OVCAR-8): Active
growth inhibition (GI) (MOLT-4): Active
growth inhibition (GI) (Malme-3M): Active
growth inhibition (GI) (ACHN): Active
growth inhibition (GI) (UO-31): Active
growth inhibition (GI) (U-251): Active
growth inhibition (GI) (SN12C): Active
growth inhibition (GI) (SNB-75): Active
growth inhibition (GI) (BT-549): Active
growth inhibition (GI) (HCT-116): Active
growth inhibition (GI) (SK-OV-3): Active
MIC (Aspergillus fumigatus [1]): 25 µg/mL (≈ 65.5 µM)
growth inhibition (GI) (SF-539): Active
zone of inhibition at 100 µg/mL (Aspergillus fumigatus [2]): 16 mm
growth inhibition (GI) (SF-268): Active
growth inhibition (GI) (M14): Active
MIC (Candida albicans [3]): 10 µg/mL (≈ 26.2 µM)
growth inhibition (GI) (IGROV-1): Active
growth inhibition (GI) (SW-620): Active
growth inhibition (GI) (Hs-578T): Active
growth inhibition (GI) (TK-10): Active
growth inhibition (GI) (MDA-MB-468): Active
growth inhibition (GI) (SF-295): Active
growth inhibition (GI) (NCI-H460): Active
growth inhibition (GI) (CAKI-1): Active
growth inhibition (GI) (MDA-MB-231): Active
growth inhibition (GI) (HL-60(TB)): Active
growth inhibition (GI) (EKVX): Active
growth inhibition (GI) (SK-MEL-28): Active
growth inhibition (GI) (NCI-H226): Active
growth inhibition (GI) (786-0): Active
growth inhibition (GI) (OVCAR-5): Active
growth inhibition (GI) (UACC-62): Active
growth inhibition (GI) (LOX IMVI): Active
growth inhibition (GI) (OVCAR-3): Active
growth inhibition (GI) (A549): Active
growth inhibition (GI) (T47D): Active
growth inhibition (GI) (MDA-MB-435): Active
growth inhibition (GI) (SNB-19): Active
zone of inhibition at 100 µg/mL (Candida albicans [4]): 12 mm
growth inhibition (GI) (HCC 2998): Active

Clc1nc2ccc(Br)cc2cc1Cn1nnc(Cc2ccccc2)n1
growth inhibition (GI) (SR): Active
growth inhibition (GI) (NCI-H23): Active
growth inhibition (GI) (UACC-257): Active
growth inhibition (GI) (K562): Active
growth inhibition (GI) (OVCAR-8): Active
growth inhibition (GI) (MOLT-4): Active
growth inhibition (GI) (Malme-3M): Active
growth inhibition (GI) (ACHN): Active
growth inhibition (GI) (UO-31): Active
growth inhibition (GI) (U-251): Active
growth inhibition (GI) (SN12C): Active
growth inhibition (GI) (SNB-75): Active
growth inhibition (GI) (BT-549): Active
growth inhibition (GI) (HCT-116): Active
growth inhibition (GI) (SK-OV-3): Active
MIC (Aspergillus fumigatus [1]): 10 µg/mL (≈ 24.1 µM)
growth inhibition (GI) (SF-539): Active
zone of inhibition at 100 µg/mL (Aspergillus fumigatus [2]): 13 mm
growth inhibition (GI) (SF-268): Active
growth inhibition (GI) (M14): Active
MIC (Candida albicans [3]): 10 µg/mL (≈ 24.1 µM)
growth inhibition (GI) (IGROV-1): Active
growth inhibition (GI) (SW-620): Active
growth inhibition (GI) (Hs-578T): Active
growth inhibition (GI) (TK-10): Active
growth inhibition (GI) (MDA-MB-468): Active
growth inhibition (GI) (SF-295): Active
growth inhibition (GI) (NCI-H460): Active
growth inhibition (GI) (CAKI-1): Active
growth inhibition (GI) (MDA-MB-231): Active
growth inhibition (GI) (HL-60(TB)): Active
growth inhibition (GI) (EKVX): Active
growth inhibition (GI) (SK-MEL-28): Active
growth inhibition (GI) (NCI-H226): Active
growth inhibition (GI) (786-0): Active
growth inhibition (GI) (OVCAR-5): Active
growth inhibition (GI) (UACC-62): Active
growth inhibition (GI) (LOX IMVI): Active
growth inhibition (GI) (OVCAR-3): Active
growth inhibition (GI) (A549): Active
growth inhibition (GI) (T47D): Active
growth inhibition (GI) (MDA-MB-435): Active
growth inhibition (GI) (SNB-19): Active
zone of inhibition at 100 µg/mL (Candida albicans [4]): 10 mm
growth inhibition (GI) (HCC 2998): Active

Clc1nc2ccc(Br)cc2cc1Cn1nnnc1Cc1ccccc1
growth inhibition (GI) (SR): Active
growth inhibition (GI) (NCI-H23): Active
growth inhibition (GI) (UACC-257): Active
growth inhibition (GI) (K562): Active
growth inhibition (GI) (OVCAR-8): Active
growth inhibition (GI) (MOLT-4): Active
growth inhibition (GI) (Malme-3M): Active
growth inhibition (GI) (ACHN): Active
growth inhibition (GI) (UO-31): Active
growth inhibition (GI) (U-251): Active
growth inhibition (GI) (SN12C): Active
growth inhibition (GI) (SNB-75): Active
growth inhibition (GI) (BT-549): Active
growth inhibition (GI) (HCT-116): Active
growth inhibition (GI) (SK-OV-3): Active
MIC (Aspergillus fumigatus [1]): 10 µg/mL (≈ 24.1 µM)
growth inhibition (GI) (SF-539): Active
zone of inhibition at 100 µg/mL (Aspergillus fumigatus [2]): 13 mm
growth inhibition (GI) (SF-268): Active
growth inhibition (GI) (M14): Active
MIC (Candida albicans [3]): 10 µg/mL (≈ 24.1 µM)
growth inhibition (GI) (IGROV-1): Active
growth inhibition (GI) (SW-620): Active
growth inhibition (GI) (Hs-578T): Active
growth inhibition (GI) (TK-10): Active
growth inhibition (GI) (MDA-MB-468): Active
growth inhibition (GI) (SF-295): Active
growth inhibition (GI) (NCI-H460): Active
growth inhibition (GI) (CAKI-1): Active
growth inhibition (GI) (MDA-MB-231): Active
growth inhibition (GI) (HL-60(TB)): Active
growth inhibition (GI) (EKVX): Active
growth inhibition (GI) (SK-MEL-28): Active
growth inhibition (GI) (NCI-H226): Active
growth inhibition (GI) (786-0): Active
growth inhibition (GI) (OVCAR-5): Active
growth inhibition (GI) (UACC-62): Active
growth inhibition (GI) (LOX IMVI): Active
growth inhibition (GI) (OVCAR-3): Active
growth inhibition (GI) (A549): Active
growth inhibition (GI) (T47D): Active
growth inhibition (GI) (MDA-MB-435): Active
growth inhibition (GI) (SNB-19): Active
zone of inhibition at 100 µg/mL (Candida albicans [4]): 16 mm
growth inhibition (GI) (HCC 2998): Active
